Assay results from PubChem BioAssay (NCI).
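Five compound concentrations were applied to cells in 96-well plates for 48 hours; endpoints were derived by simple linear interpolation of the resulting dose-response curve. At the GI50, growth is halved. The concentration for full growth arrest is given as TGI.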

Key:
Experiment in all cases: DTP human tumour cell line panel, 48 h
NCI-H226 lung = system: NCI-H226 lung
NCI-H23 lung = system: NCI-H23 lung
NCI-H460 lung = system: NCI-H460 lung
NCI-H522 lung = system: NCI-H522 lung
NCI/ADR-RES ovarian = system: NCI/ADR-RES ovarian
OVCAR-3 ovarian = system: OVCAR-3 ovarian
OVCAR-5 ovarian = system: OVCAR-5 ovarian
OVCAR-8 ovarian = system: OVCAR-8 ovarian
PC-3 prostate = system: PC-3 prostate
RPMI-8226 leukemia = system: RPMI-8226 leukemia
RXF 393 renal = system: RXF 393 renal
SF-268 CNS = system: SF-268 CNS
SF-295 CNS = system: SF-295 CNS
SF-539 CNS = system: SF-539 CNS
SK-MEL-2 melanoma = system: SK-MEL-2 melanoma
SK-MEL-5 melanoma = system: SK-MEL-5 melanoma
SK-OV-3 ovarian = system: SK-OV-3 ovarian
SN12C renal = system: SN12C renal
SNB-19 CNS = system: SNB-19 CNS
SW-620 colon = system: SW-620 colon
T-47D breast = system: T-47D breast
TK-10 renal = system: TK-10 renal
U251 CNS = system: U251 CNS
UACC-257 melanoma = system: UACC-257 melanoma
UACC-62 melanoma = system: UACC-62 melanoma
UO-31 renal = system: UO-31 renal

Q: What does the source list for Cc1ccc(-n2c3c(c4c(CN5CCOCC5)c(O)ccc42)CCc2ccccc2C3=O)cc1?
A: GI50 (NCI-H226 lung): 78.1 µM; TGI (NCI-H226 lung): > 100 µM; GI50 (NCI-H23 lung): > 100 µM; TGI (NCI-H23 lung): > 100 µM; GI50 (NCI-H460 lung): 65.8 µM; TGI (NCI-H460 lung): > 100 µM; GI50 (NCI-H522 lung): 34.5 µM; TGI (NCI-H522 lung): > 100 µM; GI50 (NCI/ADR-RES ovarian): 39.1 µM; TGI (NCI/ADR-RES ovarian): > 100 µM; GI50 (OVCAR-3 ovarian): 71.2 µM; TGI (OVCAR-3 ovarian): > 100 µM; GI50 (OVCAR-5 ovarian): > 100 µM; TGI (OVCAR-5 ovarian): > 100 µM; GI50 (OVCAR-8 ovarian): 90.7 µM; TGI (OVCAR-8 ovarian): > 100 µM; GI50 (PC-3 prostate): 42.4 µM; TGI (PC-3 prostate): > 100 µM; GI50 (RPMI-8226 leukemia): 21 µM; TGI (RPMI-8226 leukemia): > 100 µM; GI50 (RXF 393 renal): 25.9 µM; TGI (RXF 393 renal): > 100 µM; GI50 (SF-268 CNS): 73.7 µM; TGI (SF-268 CNS): > 100 µM; GI50 (SF-295 CNS): > 100 µM; TGI (SF-295 CNS): > 100 µM; GI50 (SF-539 CNS): > 100 µM; TGI (SF-539 CNS): > 100 µM; GI50 (SK-MEL-2 melanoma): > 100 µM; TGI (SK-MEL-2 melanoma): > 100 µM; GI50 (SK-MEL-5 melanoma): 76 µM; TGI (SK-MEL-5 melanoma): > 100 µM; GI50 (SK-OV-3 ovarian): > 100 µM; TGI (SK-OV-3 ovarian): > 100 µM; GI50 (SN12C renal): 46.9 µM; TGI (SN12C renal): > 100 µM; GI50 (SNB-19 CNS): > 100 µM; TGI (SNB-19 CNS): > 100 µM; GI50 (SW-620 colon): > 100 µM; TGI (SW-620 colon): > 100 µM; GI50 (T-47D breast): > 100 µM; TGI (T-47D breast): > 100 µM; GI50 (TK-10 renal): > 100 µM; TGI (TK-10 renal): > 100 µM; GI50 (U251 CNS): > 100 µM; TGI (U251 CNS): > 100 µM; GI50 (UACC-257 melanoma): > 100 µM; TGI (UACC-257 melanoma): > 100 µM; GI50 (UACC-62 melanoma): > 100 µM; TGI (UACC-62 melanoma): > 100 µM; GI50 (UO-31 renal): > 100 µM; TGI (UO-31 renal): > 100 µM
